In US20120039808A1, “Brain Tumor Stem Cell Differentiation Promoter, and Therapeutic Agent for Brain Tumor” (The University of Tokyo, priority 2009, published 2012):
Entries after “also recorded” stand apart in the source; their conditions may differ.

Columns and labels:
Sox2 mRNA = Sox2 mRNA expression by quantitative real-time PCR; type: cell-based, human
Description: (§1) Quantitative real-time PCR was implemented according to the method by Ikushima et al. (EMBO J. 2008, 27: 2955-2965). All samples were implemented in triplicate. The data was normalized using glyceraldehyde 3-phosphate dehydrogenase (GAPDH).
In addition, siRNA (siSMAD2 and siSMAD3) were transfected to SMAD2 and SMAD3 in TGS-01 cells, and incubated for 24 hours, and then processed for TGF-β (100 μM), and the expression levels measured. […] (See FIG. 4B).
The induction of Sox2 expression by TGF-β was observed 24 hours after stimulation, but not observed after three hours. (See FIG. 4A.) Further, the effects of TGF-β on Sox2 expression in the presence of cycloheximide, which is a protein synthesis inhibitor, were examined. TGF-β (100 μM) processing was implemented for 24 hours, and after processing the TGF-β for 30 minutes, the cycloheximide processing was started, and the Sox2 expression levels were measured. In the presence of cycloheximide, which is a protein synthesis inhibitor, the induction of Sox2 expression was reduced. From these facts, it is thought that Sox2 expression is not induced directly by TGF-β, but rather, that it is controlled by other factors that are induced by TGF-β.

Sox4 mRNA = Sox4 mRNA expression by quantitative real-time PCR; type: cell-based, human; conditions: for Sox4 mRNA expression: TGS-01 and TGS-04, three hours and 24 hours, TGF-β 100 μM or SB431542 1 μM
Excerpt: as §1

[1] = tested on: glioma-initiating cells (TGS-01, TGS-04); assay: Sphere formation assay; type: cell-based, human
Description: GICs were cultivated for seven days using a non-tissue-culture-treated-flask with vent cap (BD Bioscience). The floating spheres were counted for each sample within five fields of vision under a microscope.
To clarify the role of TGF-β signals in glioma-initiating cells, first the effects due to TGF-β signal inhibition were examined. A sphere formation ability assay was implemented in the presence of either TGF-β or a TGF-β inhibitor (SB431542, 1 μM).
SB431542 can inhibit not only the TGF-β type I receptor (ALK5), but also activin/nodal type I receptor signals, so to identify the role of TGF-β signals, the effects of a TGF-β receptor II/Fc chimera on glioma-initiating cells were examined. The glioma-initiating cells were separated into single cells, and a sphere assay implemented in the presence of either human TGF-βRII/Fc chimera (1 μg/mL), or IgG1Fc (1 μg/mL) as a control.

[2] = tested on: SMAD complexes binding to Sox4 promoters; assay: Chromatin immunoprecipitation with SMAD2 and SMAD3 antibodies; type: cell-based, human; conditions: TGS-01; 1.5 hours; TGF-β 100 μM or SB431542 1 μM
Description: (§2) Chromatin immunoprecipitation was implemented using the method described by Koinuma et al. (Molecular and Cellular Biology, 2009, 29:172-186, 10.1128/MCB, 01038-08). After reverse cross-linking, the DNA was processed using proteinase K, and refined using a PCR purification kit (Qiagen). The DNA was eluted into 30 μL of TE, and used in either PCR or quantitative real-time PCR. The primers used in the PCR are as described below.
To verify that Sox4 is a direct TGF-β marker, chromatin immunoprecipitation assay was implemented using antibodies to SMAD2 and SMAD3, which are DNA binding signal mediators for the TGF-β signals. Specifically, TGS-01 cells were processed for 1.5 hours using either TGF-β (100 μM), or SB431542 (1 μM), and the eluted DNA was supplied for either real-time PCR or RT-PCR. In real-time PCR, the measured values were normalized using the first introns of hypoxanthine phosphoribosyltransferase (HPRT). […] (See FIG. 6F.)

Sox2 protein = Sox2 protein level by immunoblotting; type: cell-based, human; conditions: 24-hour processing; TGF-β 100 μM or SB431542 1 μM
Description: The cells were dissolved in a buffer including 1% Nonidet P-40, 20 mM Tris-hydrochloride (pH7.4), 150 mM sodium chloride, 1 mM PMSF, 1% aprotinin, and 5 mM EDTA. The proteins refined from the cytolized product was supplied to SDS-PAGE, and transferred to a Fluoro Trans W Membrane (Pall). Immunoblotting was implemented using various types of antibodies.
Moreover, it was also verified that the 24-hour processing using TGF-β (100 μM) or SB431542 (1 μM) suppressed the expression of Sox2 protein levels. (See FIG. 4C.) In the diagram, α-tubulin is the loading control.

[3] = tested on: Sox4 recruitment to the Sox2 enhancer region; assay: Chromatin immunoprecipitation with Sox4 antibodies; type: cell-based, human; conditions: TGS-01; 24 hours; TGF-β 100 μM or SB431542 1 μM
Description: as §2
To verify that this control is direct, chromatin immunoprecipitation assay was implemented using Sox4 antibodies. It has previously been reported that the enhancer region located in the Sox2 gen 3′ flanking region is important for controlling Sox2 expression. (Chew et al., Molecular and Cellular Biology, 2005, 25:6031-6046; Tomioka et al., Nucleic Acids Research, 2002, 30: 3202-3213.) This region includes the consensus binding motif CATTGTA to Sox4. […]
Here, TGS-01 cells were processed for 24 hours using either TGF-β (100 μM), or SB431542 (1 μM), and the eluted DNA analyzed using quantitative real-time PCR. The measured values were normalized using HPRT first intron quantities. […] Further, to examine the effects of Sox4 knockdown on sox2 expression induction by TGF-β, siRNA was stained, and after for 24 hours, was processed for a further 24 hours using TGF-β (100 μM), and the Sox2 mRNA expression levels measured using real-time PCR. […]

[4] = tested on: Oct-4, NANOG, and LIF expression; assay: Expression of stem cell markers Oct-4, NANOG, LIF; type: cell-based, human
Excerpt: as §1
(See FIG. 14.) Further, it has been reported that NANOG and LIF are induced in many cells by stimulating TGF-β. (Xu et al., Cell Stem Cell, 2008, 3: 206; Bruna et al., Cancer Cell, 2007, 11: 147-160.)

[5] = tested on: Nestin, Musashi, GFAP, Tuj1 positive glioma-initiating cells; assay: Immunostaining of neural precursor and differentiation markers; type: cell-based, human
Description: Glioma-initiating cells (GICs) were seeded on glass slides that had been coded using poly-L-ornithine (Sigma) and fibronectin (Sigma), and were then cultured for seven days together with various ligands or inhibitors in serum-free culture. The cells were fixed using 3.7% paraformaldehyde, and then the cell membrane was made permeable using 0.3% Triton […] including PBS, and incubated together with various antibodies.
(§3) Next, the effects of TGF-β (100 μM) or SB431542 (1 μM) were examined using flow cytometry. In the presence of TGF-β inhibitors, the percentage of CD133-positive cells in the glioma spheres was reduced. (See FIG. 3A.) Further, to examine the expression of neural precursor cell markers or neural cell differentiation markers in the glioma spheres, the spheres (TGS-01) were separated into single serum-free culture, and seeded on glass slides that had been coded using poly-L-ornithine (Sigma) and fibronectin (Sigma), and were then cultured for seven days together with TGF-β (100 μM) or the inhibitor SB431542 (1 μM). The cells were fixed using 3.7% paraformaldehyde, and the cell membrane was made permeable using 0.3% Triton […] including PBS, and incubated together with antibodies before immunostaining was implemented.

[6] = tested on: CD133-positive cells in glioma spheres; assay: Flow cytometry of CD133-positive cells; type: cell-based, human
Description: The cells were separated into single cells, and marked using phycoerythrin marker CD133 antibodies. The expression levels were measured using EXPO32 ADC software through a Beckman C EPICS XL flow cytometer.
as §3

[7] = tested on: TGS-01 cells transplanted intracranially; assay: Intracranial proliferation assay; type: in vivo, BALB/c nu/nu mice
Description: Glioma-initiating cells (living cells […] in 5 μL of DMEM/F12 culture) were injected stereotaxically at a depth of 3 mm into the right cerebral hemisphere of five-week-old female BALB/c nu/nu mice. All animal testing was implemented according to the policies of the University of Tokyo animal testing committee.
Specifically, adenovirus-Sox4 or adenovirus-LacZ staining was implemented, and 5×10^4 TGS-01 cells either unprocessed or after 24 hours processing using a TGF-β inhibitor were transplanted intracranially. TGF-β is well-known to promote glioma cell proliferation, so to classify the results into effects on growth and effects in differentiation, SB431542 processing was implemented as pre-processing and not implemented continuously. Six mice were used for each condition, and evaluated using Kaplan-Meier analysis. The p values were determined using the long-rank test. […] Further, the results of histological analysis of the samples dissected 30 days after intracranial transplant are shown in FIG. 11 (Right). Tissue sections were stained using hematoxylin and eosin (HE).

[8] = 24 hours after processing, TGF-β 100 μM or SB431542 1 μg (so in the source)
[9] = cells pre-processed with SB431542, 30 days after intracranial transplant

C[C@@H]1C[C@@H]([C@H](O)CC2CC(=O)NC(=O)C2)C(=O)[C@@H](C)C1 [cycloheximide]
induction of Sox2 expression by TGF-β in the presence of cycloheximide (Sox2 mRNA; TGF-β 100 μM (so in the source) 24 hours, cycloheximide started after 30 minutes): reduced | Sox4 induction by TGF-β in the presence of cycloheximide (Sox4 mRNA): not influenced

CC1=C2C[C@H]3[C@@H](CC=C4C[C@@H](O)CC[C@@]43C)[C@@H]2CC[C@]12O[C@@H]1C[C@H](C)CN[C@H]1[C@H]2C [cyclopamine]
effects on sphere formation compared with SB431542 ([1]; TGS-01, cyclopamine 2.5, 5, 10 μM vs SB431542 1 μM): smaller than those of SB431542 | effect on sphere formation of the two drugs combined ([1]; TGS-01, cyclopamine combined with SB431542 1 μM): no additional or synergistic effect | sphere formation ability of TGS-01 cells ([1]; cyclopamine 2.5, 5, and 10 μM, seven days): reduced

TGF-β
binding of SMAD complexes to Sox4 promoters [2]: bound directly | expression of Sox2 protein levels (Sox2 protein): suppressed | Sox4 recruitment to the Sox2 enhancer region [3]: increased | expression of Sox2 mRNA (Sox2 mRNA; [8]): induced; also recorded: observed | induction of Sox2 expression (Sox2 mRNA; three hours after TGF-β stimulation): not observed | LIF expression ([4]; TGS-01 or TGS-04 cells, TGF-β signals): did not induce | expression of Oct-4, NANOG, and LIF ([4]; processing using TGF-β or an inhibitor): not greatly affected | marker expression ([5]; adding TGF-β (100 μM [sic]), seven days): did not greatly influence | Sox4 mRNA expression (Sox4 mRNA): induced | sphere formation ability ([1]; adding TGF-β): did not greatly influence | CD133-positive ratio ([6]; adding TGF-β (100 μM [sic])): did not greatly influence

NC(=O)c1ccc(-c2nc(-c3ccc4c(c3)OCO4)c(-c3ccccn3)[nH]2)cc1 [SB431542]
binding of SMAD complexes to Sox4 promoters [2]: clearly controlled | expression of Sox2 protein levels (Sox2 protein): suppressed | Sox4 recruitment to the Sox2 enhancer region [3]: clearly reduced | expression of Sox2 mRNA (Sox2 mRNA; [8]): suppressed | expression of Sox2 mRNA (Sox2 mRNA; subsequently for seven days, SB431542 1 μg (so in the source)): low expression level continued | survival period of the mice ([7]; TGS-01 (adenovirus-LacZ) pre-processed 24 hours with SB431542 vs unprocessed control, Kaplan-Meier): significantly longer | neurological symptoms [7, 9]: did not show any neurological symptoms | tumors on pathological examination using HE staining [7, 9]: did not reveal any tumors | extension of survival periods ([7]; glioma-initiating cells over-expressing Sox4, pre-processed with SB431542): did not shown any effects | percentages of Nestin-positive cells and GFAP-positive cells ([5]; TGS-01 over-expressing Sox4, SB431542, seven days): no major changes | percentage of GFAP-positive cells ([5]; cells over-expressing Sox2): did not increase | percentage of Nestin-positive cells ([5]; cells over-expressing Sox2): did not fall | Sox4 mRNA expression (Sox4 mRNA): down-regulated | sphere formation ability of glioma-initiating cells ([1]; SB431542 1 μM, seven days culture): conspicuously reduced | spherical growth pattern of spheres that had once formed ([1]; SB431542 added to formed spheres): became adhesion cells | sphere formation ability ([1]; TGS-01 over-expressing Sox4 (adenovirus-Sox4 vs adenovirus-LacZ), SB431542 1 μM, seven days): fall in sphere formation ability was alleviated | sphere formation abilities ([1]; glioma-initiating cells over-expressing Sox2, compared to LacZ over-expressing cells): reduced only slightly | percentage of CD133-positive cells in the glioma spheres ([6]; SB431542 1 μM): reduced

B1: TGF-βRII/Fc: human TGF-β receptor II/Fc chimera (protein)
chain: TIPPHVQKSVNNDMIVTDNNGAVKFPQLCKFCDVRFSTCDNQKSCMSNCSITSICEKPQEVCVAVWRKNDENITLETVCHDPKLPYHDFILEDAASPKCIMKEKKKPGETFFMCSCSSDECNDNIIFSEEYNTSNPD
modifications: left off: a dimerising Fc or GST
notes: human TGF-β receptor II/Fc chimera
efficiency in forming spheres ([1]; human TGF-βRII/Fc chimera 1 μg/mL, IgG1Fc 1 μg/mL as control): low
